{"source": "patent US11596626B2", "about": "“Compound for use against pathogenic Neisseria and Haemophilus species and Moraxella catarrhalis” (priority 2017, dated 2023)", "key": {"[1]": {"tested_on": "immortalized human vaginal epithelial cells (MS74)", "experiment": "MTT assay of metabolic activity (cytotoxicity)", "format": "cell-based", "conditions": "FIG. 13", "excerpt": "HeLa S3 cells were cultivated in Dulbecco's modified Eagle's medium (DMEM) medium supplemented with 10% fetal calf serum and passaged every 2-3 days. Primary human vaginal epithelial cells (hVEC/MS74) were obtained from A. J. Schaeffer (Feinberg School of Medicine, Northwestern University, Chicago, Ill.) and are derived from vaginal tissue of a post-menopausal person. The cell line was created through immortalization of these cells with human papilloma virus 16, E6 and E7 genes according to literature (N. Rajan et. al., Characterization of an immortalized human vaginal epithelial cell line. J Urol 163, 616-622 (2000)). MS74 were cultured on gelatine-coated cell culture dished using Dulbecco's modified Eagle's medium (DMEM) medium (biochrom) supplemented with 10% fetal calf serum, 1% non-essential amino acids and 1% pyruvate at 37° C. in 5% CO2 and subcultured when half confluency was reached.\nAll plates were coated overnight at 4° C. with 0.1% gelatine in PBS before use. 2×10^4 HeLa S3 or MS74 cells were incubated with the mentioned concentrations of NQNO in 100 μl of their respective medium and incubated for 2 days at 37° C. and 5% CO2. 10 μl of MTT solution (12 mM in PBS, sterile filtered with […]) were added. The cells were subsequently incubated for 2 h at 37° C. […] 0D550 was measured using a Thermo Fisher Varioskan Flash spectrophotometer."}, "MS74 cells": {"tested_on": "MS74 cells", "experiment": "Microscopic evaluation of treated cells", "format": "cell-based, human", "conditions": "up to 50 μM, 2 days, FIG. 14", "excerpt": "FIG. 14: Microscopic evaluation of MS74 cells treated for two days with the indicated concentrations of NQNO compared to DMSO control."}, "N. gonorrhoeae": {"tested_on": "N. gonorrhoeae", "experiment": "Vaginal colonization of CEAtg female mice, re-isolation of gonococci by swab", "format": "in vivo, Neisseria gonorrhoeae", "method": "By using genetically modified mice (CEA-transgenic; CEAtg mice), which express a human receptor for the gonococcal Opa-adhesin on their mucosal surface, it is possible to study the initial colonization of the upper genital tract by N. gonorrhoeae and to re-isolate these pathogens after intra-vaginal challenge (FIG. 7). 6 to 8 week old, female wildtype (black) or CEA-transgenic (CEAtg, red) mice were infected with N. gonorrhoeae. 2 h after infection, the animals were treated with 20 μl buffer containing solvent (DMSO) or 50 μM NQNO (Compound represented by the Formula (5)). 20 h later, vaginal swaps were taken and plated on selective agar. Each dot refers to bacteria isolated from an individual animal (n≥5) (cf. FIG. 7). […]\nIn a further experiment, experimental vaginal infection of female mice with N. gonorrhoeae was performed as previously described in the literature (P. Muenzner, V. Bachmann, J. Hentschel, W. Zimmermann, C. R. Hauck, Human-restricted bacterial pathogens block shedding of epithelial cells by stimulating integrin activation. Science 329, 1197-1201 (2010)). […] Serial dilutions of re-isolated bacteria were plated on GC agar containing chloramphenicol (10 μg/ml) and erythromycin (7 μg/ml) and the colonies were counted after 20 h of incubation at 37° C., 5% CO2."}, "[2]": {"experiment": "Tissue integrity and tolerability after topical vaginal application in CEAtg mice", "format": "in vivo", "method": "6 to 8 week old, female CEA-transgenic mice were infected with N. gonorrhoeae. 2 h after infection, the animals were treated with 20 μl buffer containing solvent (DMSO) or 50 μM NQNO (Compound represented by the Formula (5)). 20 h later, the genital tract was excised and cryosections were stained for cell nuclei (Hoechst; blue), human CEA (red) and N. gonorrhoeae (gonococci, green) (FIG. 8).\nAdditional cryosections from the same samples were stained for cell nuclei (Hoechst; blue), human collagen (red) and N. gonorrhoeae (gonococci, green) (FIG. 9).\n6 to 8 week old, female CEA-transgenic mice were treated with 20 μl buffer containing solvent (DMSO) or 50 μM NQNO (Compound represented by the Formula (5)). 20 h later, the genital tract was excised, fixed, paraffin embedded and tissue sections were stained with HE (Haematoxilin/Eosin) solution.\nIn particular, in the above experiment the genital tract of infected and NQNO/DMSO or DMSO treated animals was excised and placed in 4% neutral buffer containing formalin overnight followed by 0.4% PFA (paraformaldehyde) treatment. The tissue was then dehydrated and embedded in paraffin. 10 μm serial sections were cut, deparaffinized and rehydrated in a graded series (100% to 75%) of ethanol. Sections were serially stained with Hematoxilin solution according to Mayer (Sigma) and 0.5% Eosin G solution (Roth)."}, "[3]": {"experiment": "Stability in deuterated methanol by proton NMR", "format": "physicochemical", "conditions": "25 mM in deuterated methanol, 25° C. or 37° C., 28 days", "method": "Two samples of NQNO were dissolved in deuterated methanol (CD3OD) to reach a final concentration of 25 mM. Samples were kept at 25° C. or 37° C. for 28 days and proton NMR spectra were measured with the same acquisition parameters every week and the spectra compared with the ones from day 0."}, "[4]": {"experiment": "Stability in DMEM with 10% fetal calf serum by LC-MS", "format": "physicochemical", "conditions": "100 μM in DMEM with 10% fetal calf serum, 24° C. and 37° C.", "method": "Stability of 100 μM NQNO in Dulbecco's modified Eagle's medium (DMEM) medium supplemented with 10% fetal calf serum at 24° C. and 37° C. was evaluated over a period of 4 days. Samples were taken at the beginning (day 0) and every second day. Samples were analyzed by LC-MS and the integrals of the detected NQNO (by using extracted ion chromatograms) compared to the integral of the control (100 μM NQNO in H2O) which was set to 100%."}}, "note": "Entries after “also recorded” stand apart in the source; their conditions may differ."}
{"smiles": "CCCCCCCCCc1cc(=O)c2ccccc2n1O", "note": "[NQNO, 1-Hydroxy-2-nonylquinolin-4(1H)-one]", "values": [{"measurement": "Metabolic activity (MTT)", "setting": "[1]; 50 μM, two days", "result": "only slightly reduced metabolic activity"}, {"measurement": "Cytotoxicity (metabolic activity, MTT)", "setting": "[1]; up to 25 μM, 2 days", "result": "not harmed"}, {"measurement": "Morphology and overall phenotype of cells", "setting": "MS74 cells", "result": "did not change"}, {"measurement": "Number of re-isolated gonococci (vaginal colonization)", "setting": "N. gonorrhoeae; CEAtg female mice, 20 μl of 50 μM topical 2 h after infection, swabs 20 h later, FIG. 7", "result": "significantly (***; p<0.001) reduces the number of re-isolated gonococci; also recorded: completely blocks vaginal colonization"}, {"measurement": "Re-isolated gonococci from the genital tract", "setting": "N. gonorrhoeae; CEAtg mice, 10 μl of 25 μM or 50 μM intravaginally 1 h after infection, swabs 24 h later, FIG. 15", "result": "hardly any gonococci could be re-isolated"}, {"measurement": "Histology of vaginal tract epithelium (HE staining)", "setting": "[2]; CEAtg mice, 20 μl of 50 μM, 20 h, FIG. 10", "result": "intact striated epithelium"}, {"measurement": "Integrity of mucosal surface and subepithelial tissue (CEA and collagen staining)", "setting": "[2]; infected CEAtg mice, 20 μl of 50 μM topical, 20 h, FIGS. 8 and 9", "result": "continuous and unaltered mucosal surface; also recorded: does not damage the mucosal surface"}, {"measurement": "Signs of discomfort in treated mice", "setting": "[2]; single topical application", "result": "did not show any signs of discomfort"}, {"measurement": "Stability in solvent", "setting": "[3]", "result": "stable at 37 °C in deuterated methanol for at least one month"}, {"measurement": "Time stable in serum-containing cell culture medium", "setting": "[4]", "result": "at least 4 days"}]}
